The subject of data set [1] is LX-2 cells. Briefly: MTT assay of cell viability. The class given is cell-based, human. The procedure:
(§1) LX 2 cell lines were bought from American Type Culture Collection (Rockville, MD, USA). Upon defrosting, the cells were seeded in 6-well plates and maintained in a medium DMEM low glucose supplemented with 10% FBS and a 1% Penicillin and Streptomycin solution. The obtained cell cultures were left at 37 °C in an incubator with 5% CO2, and the culture medium was changed after 3 or 4 days. Sub-confluent cells were treated over a period of 24 h using various concentrations (1, 5, 10 µM) of compounds 1a–o, 2a–c, and dimethyl fumarate (DMF) previously dissolved in DMSO. Control groups were treated with only DMSO.
An MTT assay was performed to monitor cell viability, measuring the conversion of tetrazolium salt to yield colored formazan, the amount of which was proportional to the number of living cells. Regarding this assay, LX2 cells were seeded at a concentration of […] cells per well, in a 96-multiwell flat-bottomed 200 μL microplate. The optical density of each well was measured with a microplate spectrophotometer reader (Synergy HT, BioTek) at λ = 570 nm.
(In general: Formazan colour is commonly taken as a measure of viable cells.)

The test system of data set [2] is LX-2 cells. Description: ROS assay with DCFH-DA, palmitic acid (PA)-mediated ROS production. The format is cell-based, human. The settings on record: 24 h; for ROS production mediated by palmitic acid (PA), co-treatment: 5 μM compound + PA 300 μM, p < 0.05 vs. PA. Here is the method: Determination of the reactive oxygen species (ROS) was performed using a fluorescent probe 2′,7′-dichlorofluorescein diacetate (DCFH-DA). The fluorescence (corresponding to the oxidized radical species 2′,7′-dichlorofluorescein, DCF) was monitored spectrofluorometrically (excitation, λ = 488 nm; emission, λ = 525 nm). Results were reported as fluorescence intensity. Concerning the experiments, the cells were seeded in 96-well plates at a density of 1 × 10^4 cells per well. Then, the cells were treated for 24 h with DMEM containing a no cytotoxic concentration of palmitic acid (PA) 300 μM in the presence or absence of compound 1b, 1l, 1m and dimethyl fumarate (DMF) (5 μM).

For a further data set, the system named is HO-1. Briefly: HO-1 expression by ELISA in LX-2 cell lysates. The class given is cell-based, human. The settings on record: for fold induction at 1 µM / fold induction at 5 µM / fold induction at 10 µM: Homo sapiens, LX-2, 24 h; for fold induction at 1 µM / fold induction at 5 µM / fold induction at 10 µM / Fold Induction (ELISA): 24 h, LX-2 cells lysate, vs control group, mean ± SD of triplicate; for potency as HO-1 inducers relative to DMF: LX-2 cells, more active than DMF. Here is the method:
as §1
The commercially available ELISA kit (ADI-EKS-800, Enzo Life Sci) was used to measure heme oxygenase […] (HO-1) protein concentration in LX2 cellular lysates. The test was performed in agreement with the protocol reported by the manufacturer. Absorbance at λ = 450 nm was measured and the concentration of HO-1 was calculated from a standard curve previously created using purified HO-1 protein. Results were expressed as folds of change compared to the control group. Individual measurement was performed in triplicate and data were reported as averages.
(In an ELISA, binding on a coated surface is turned into a signal by an enzyme label.)

Structures can show the parent of a compound that is named as a salt. Where two headings read alike, the source gives them in different places.

`O=C(/C=C/C(=O)Oc1ccc(Cl)cc1)Oc1ccc(Cl)cc1` [Compound 1b, (2E)-2-Butenedioic acid, 1,4-bis(4-chlorophenyl) ester] registered a melting point of 178 to 179 °C. Moreover, the IC50 in the data set on LX-2 cells [1] (Homo sapiens) is over 50 µM. Moreover, in the data set with LX-2 cells [2], the “ROS production mediated by palmitic acid (PA), co-treatment” value (“ROS production mediated by palmitic acid” below) is recorded as “significantly reversed the effect mediated by PA”. Further, the fold induction at 1 µM in the data set with HO-1 (1 μM) was determined as 8.81 ± 0.2. Further, the fold induction at 5 µM in the data set on HO-1 (5 μM) amounted to 8.19 ± 0.21. Further, the fold induction at 10 µM in the data set with HO-1 (10 μM) was 11.7 ± 0.41. Moreover, the “potency as HO-1 inducers relative to DMF” value in the data set on HO-1 is 2–3 fold.
Turning to `Cc1ccc(OC(=O)/C=C/C(=O)Oc2ccc(C)cc2)cc1` [Compound 1f], the melting point fell in the range of 160 to 161 °C. Also, the IC50 in the data set with LX-2 cells [1] (Homo sapiens) was over 50 µM. Also, in the data set with HO-1 (1 μM), the fold induction at 1 µM was 1.82 ± 0.09. Also, the fold induction at 5 µM with HO-1 (5 μM) is 3.94 ± 0.13. For the same molecule, in the data set with HO-1 (10 μM), the fold induction at 10 µM was 3.76 ± 0.15.
The like results for `O=C(/C=C/C(=O)Oc1ccccc1)Oc1ccccc1` [Compound 1a, (2E)-2-Butenedioic acid, 1,4-diphenyl ester] were, in that order, 164 to 165 °C, over 50 µM, 6.65 ± 0.15, 7.93 ± 0.18 and 8.16 ± 0.32.
In turn, `COC(=O)/C=C/C(=O)Oc1ccccc1` [Compound 2a, (2E)-2-Butenedioic Acid, Methyl Phenyl Ester] had a melting point of 54 to 55 °C. The IC50 with LX-2 cells [1] (Homo sapiens) is over 50 µM.
Take `O=C(/C=C/C(=O)OCCc1ccccc1)OCCc1ccccc1` [Compound 1j, (2E)-2-Butenedioic acid, 1,4-bis(phenylethyl) ester]: the melting point lay within 77 to 79 °C. In addition, in the data set with LX-2 cells [1] (Homo sapiens), the IC50 was over 50 µM. Also, in the data set with HO-1 (1 μM), the fold induction at 1 µM amounted to 2.29 ± 0.1. The fold induction at 5 µM with HO-1 (5 μM) is 5.91 ± 0.17. Besides, in the data set on HO-1 (10 μM), the fold induction at 10 µM is 8.47 ± 0.33.
For `O=C(/C=C/C(=O)Oc1ccc(I)cc1)Oc1ccc(I)cc1` [Compound 1c, (2E)-2-Butenedioic acid, 1,4-bis(4-iodophenyl) ester], the melting point lay in the range of 266 to 267 °C. For the same molecule, in the data set with LX-2 cells [1] (Homo sapiens), the IC50 came out at 20.8 ± 1.5 µM. Further, the fold induction at 1 µM in the data set with HO-1 (1 μM) was determined as 6.02 ± 0.13. Also, the fold induction at 5 µM with HO-1 (5 μM) amounted to 7.7 ± 0.19. For the same molecule, the fold induction at 10 µM in the data set on HO-1 (10 μM) came to 8.13 ± 0.23.
As for `O=C(/C=C/C(=O)NCc1ccccc1)NCc1ccccc1` [Compound 1m, (E)-N, N’-Diphenylmethyl-2-butenediamide], the IC50 in the data set with LX-2 cells [1] (Homo sapiens) was 18.6 ± 1.4 µM. In addition, in the data set with LX-2 cells [2], the “ROS production mediated by palmitic acid” value is on record as “significantly reversed the effect mediated by PA”. Besides, the “Fold Induction (ELISA)” value in the data set on HO-1 (5 μM, 5 µM) is 14.15 ± 0.34 fold. In addition, the fold induction at 1 µM in the data set on HO-1 (1 μM) was over 7. For the same molecule, in the data set on HO-1 (5 μM), the fold induction at 5 µM was over 14. For the same molecule, in the data set on HO-1 (10 μM), the fold induction at 10 µM stood at 13.8 ± 0.35. In addition, the “potency as HO-1 inducers relative to DMF” value in the data set with HO-1 is 2–3 fold.
`O=C(/C=C/C(=O)OCc1ccccc1)OCc1ccccc1` [Compound 1i, (2E)-2-Butenedioic acid, 1,4-bis(phenylmethyl) ester] came in with a melting point of 59 to 61 °C. The IC50 with LX-2 cells [1] (Homo sapiens) stood at 17.7 ± 1.3 µM. Further, in the data set on HO-1 (1 μM), the fold induction at 1 µM worked out at 3.4 ± 0.18. Also, in the data set on HO-1 (5 μM), the fold induction at 5 µM was determined as 5.86 ± 0.19. For the same molecule, in the data set on HO-1 (10 μM), the fold induction at 10 µM was 7.34 ± 0.28.
For `O=C(/C=C/C(=O)OCCCc1ccccc1)OCCCc1ccccc1` [Compound 1k, (2E)-2-Butenedioic acid, 1,4-bis(phenylpropyl) ester], the IC50 with LX-2 cells [1] (Homo sapiens) is over 50 µM. Also, in the data set with HO-1 (1 μM), the fold induction at 1 µM was found to be 2.26 ± 0.09. The fold induction at 5 µM in the data set with HO-1 (5 μM) turned out to be 5.98 ± 0.16. The fold induction at 10 µM with HO-1 (10 μM) stood at 9.55 ± 0.27.
Take `CCCCCCCCCCCCCCCC(=O)O` [PA, palmitic acid, reference compound]: the “ROS production, PA alone” value in the data set with LX-2 cells [2] (PA 300 μM, p < 0.05 vs. control) is given as “increased ROS production”.
With `O=C(/C=C/C(=O)Oc1ccccc1C(=O)O)Oc1ccccc1C(=O)O` [Compound 1h, (2E)-2-Butenedioic acid, 1,4-bis(2-carboxyphenyl) ester], in the data set on LX-2 cells [1] (Homo sapiens), the IC50 is over 50 µM. Also, the fold induction at 1 µM in the data set with HO-1 (1 μM) came to 6.37 ± 0.22. For the same molecule, the fold induction at 5 µM with HO-1 (5 μM) was determined as 7.45 ± 0.21. Further, the fold induction at 10 µM in the data set on HO-1 (10 μM) was determined as 9.95 ± 0.19.
The molecule `COc1ccc(OC(=O)/C=C/C(=O)Oc2ccc(OC)cc2)cc1` [Compound 1g, (2E)-2-Butenedioic acid, 1,4-bis(4-methoxyphenyl) ester] displayed a melting point of 180 to 181 °C. In addition, the IC50 in the data set on LX-2 cells [1] (Homo sapiens) turned out to be 22.3 ± 1.8 µM. Also, in the data set on HO-1 (1 μM), the fold induction at 1 µM was 0.3 ± 0.01. In the data set with HO-1 (5 μM), the fold induction at 5 µM came to 0.76 ± 0.02. For the same molecule, the fold induction at 10 µM in the data set on HO-1 (10 μM) worked out at 0.9 ± 0.06.
In turn, `COC(=O)/C=C/C(=O)OCCc1ccccc1` [Compound 2c, (2E)-2-Butenedioic acid, methyl phenylethyl ester] showed a melting point of 44 to 45 °C. In addition, in the data set with LX-2 cells [1] (Homo sapiens), the IC50 was over 50 µM.
Consider “(E)-N, N’-Diphenylpropyl-2-butenediamide [Compound 1o]”, for which, in the data set on LX-2 cells [1], the IC50 was over 50 µM. For the same molecule, the results for the “Fold Induction (ELISA)” value in the data set on HO-1 (1 μM), in the data set on HO-1 (5 μM) and in the data set on HO-1 (10 μM) were 4.85 ± 0.13 fold, 6.93 ± 0.23 fold and 6.30 ± 0.21 fold, respectively.
Regarding `O=C(/C=C/C(=O)Nc1ccccc1)Nc1ccccc1` [Compound 1l, (E)-N, N’-Diphenyl-2-butenediamide], the melting point is 332 to 333 °C. In the data set with LX-2 cells [1] (Homo sapiens), the IC50 is over 50 µM. Besides, the “ROS production mediated by palmitic acid” value in the data set on LX-2 cells [2] is listed as “significantly reversed the effect mediated by PA”. Also, the fold induction at 1 µM in the data set on HO-1 (1 μM) is 6.9 ± 0.14. The fold induction at 5 µM in the data set on HO-1 (5 μM) is 9.74 ± 0.25. Moreover, in the data set with HO-1 (10 μM), the fold induction at 10 µM turned out to be 10.2 ± 0.29. Also, the “potency as HO-1 inducers relative to DMF” value with HO-1 is listed as 2–3 fold.
`N#Cc1ccc(OC(=O)/C=C/C(=O)Oc2ccc(C#N)cc2)cc1` [Compound 1e, (2E)-2-Butenedioic acid, 1,4-bis(4-cyanophenyl) ester] showed a melting point of 230 to 232 °C. In addition, the IC50 in the data set with LX-2 cells [1] (Homo sapiens) is over 50 µM. Also, the fold induction at 1 µM with HO-1 (1 μM) came to 3.68 ± 0.21. The fold induction at 5 µM in the data set on HO-1 (5 μM) was 5.22 ± 0.11. Moreover, the fold induction at 10 µM in the data set on HO-1 (10 μM) turned out to be 6.5 ± 0.17.
In the case of “(E)-N, N’-Diphenylethyl-2-butenediamide [Compound 1n]”, in the data set with LX-2 cells [1], the IC50 was over 50 µM. Moreover, the “Fold Induction (ELISA)” value with HO-1 (1 μM) was 5.82 ± 0.12 fold; in the data set on HO-1 (5 μM), 7.52 ± 0.21 fold; in the data set on HO-1 (10 μM), 8.40 ± 0.38 fold.
Molecule `O=C(/C=C/C(=O)Oc1ccc(C(F)(F)F)cc1)Oc1ccc(C(F)(F)F)cc1` [Compound 1d, (2E)-2-Butenedioic acid, 1,4-bis(4-trifluoromethyphenyl) ester] registered a melting point of 122 to 123 °C. In addition, the IC50 in the data set on LX-2 cells [1] (Homo sapiens) was over 50 µM. The fold induction at 5 µM with HO-1 (5 μM) worked out at 1.4 ± 0.03. In the data set with HO-1 (10 μM), the fold induction at 10 µM was 0.68 ± 0.02.
In turn, `COC(=O)/C=C/C(=O)OCc1ccccc1` [Compound 2b, (2E)-2-Butenedioic acid, methyl phenylmethyl ester] came in with a melting point of 50 to 51 °C. Besides, in the data set on LX-2 cells [1] (Homo sapiens), the IC50 was over 50 µM. The fold induction at 10 µM with HO-1 (10 μM) is 0.28.
Turning to `COC(=O)/C=C/C(=O)OC` [DMF, dimethyl fumarate], in the data set on LX-2 cells [1] (Homo sapiens), the IC50 is over 50 µM. Further, the “ROS production mediated by palmitic acid” value in the data set with LX-2 cells [2] is “significantly reversed the effect mediated by PA”. Moreover, the fold induction at 1 µM with HO-1 (1 μM) is 2.78 ± 0.09. Besides, the fold induction at 5 µM in the data set with HO-1 (5 μM) was 7.63 ± 0.31. The fold induction at 10 µM in the data set on HO-1 (10 μM) was found to be 8.3 ± 0.23.

Broadly, the IC50 is the concentration at which inhibition is half-maximal. A word on the melting point: it is the temperature of the solid-liquid transition. For orientation: fold induction means the signal under treatment as a multiple of the control signal.

Source of the values: paper PMC7765375, “Novel Heme Oxygenase-1 (HO-1) Inducers Based on Dimethyl Fumarate Structure” (International Journal of Molecular Sciences, 2020).
